Source: patent publication US10219528B2 (Zinpro Corporation, priority 2016, dated 2019)
Each block holds one compound with its values, some of them ahead of it.

Tests used:
[1] = Solubility test of folate precipitates suspended in water at pH 7.0, filtered, insoluble solid weighed; assay type: physicochemical
Source text: In the parent application is was noticed that when soluble metal salts were mixed with folic acid there would be a precipitate forming after the addition of the metal salt. This precipitate was isolated and its solubility measured. According to the following procedure: The precipitates were suspended in water and the pH was adjusted to 7.0 with dilute HCl. […] The solids were dried and weighed to determine the mass of insoluble product. Very similar molar amounts of folic acid are used in this procedure.

[2] = Sheep serum folic acid concentrations after feeding test articles
Source text: The animals were separated into groups and housed in a barn with access to a pasture. The dosing regime was as follows. […] The sheep were fed the test feeds for fourteen (14) days.
Example 22 is a sheep study using the protocol of Example 20 but with the Mn and iron mixtures of Example 5 and 7, respectively. […] In this test the ewes were fed the concentrate metal folate mixture dried without any carrier but mixed on ground corn for feeding.
The liquid mixtures were then sprayed directly on ground corn.

[3] = suspended in water at pH 7.0, stirred, filtered, solid dried and weighed

Insoluble % ([1]; 15 min, pH 7): 0.33%
solubility at pH of 7 ([1]; pH 7): soluble
Compound: Nc1nc2ncc(CNc3ccc(C(=O)N[C@@H](CCC(=O)O)C(=O)O)cc3)nc2c(=O)[nH]1 [Folic Acid, folic acid, reference compound]

Compound: Iron folate
Insoluble Mass ([1]; suspended in 100 mL water, pH adjusted to 7.0, stirred, filtered, solid dried and weighed, about 3 g folate equivalents (6.8 mmols)): 3.74 g
Insoluble % [1, 3]: 96%
Insoluble % ([1]; suspended in water at pH 7.0, stirred, filtered, solid dried and weighed, listed as Iron folate): 96%

Compound: Zinc folate
Insoluble % [1, 3]: 99%
Insoluble % ([1]; suspended in water at pH 7.0, stirred, filtered, solid dried and weighed, listed as Zinc folate): 99%

Compound: Zinc Folate Mixture [Example 1]
serum folic acid concentrations ([2]; 30 mg folic acid equivalent per head per day mixed with ground corn, 14 days, pre vs post treatment (FIGS. 1-4), mean or median): increased the greatest
blood serum levels of folic acid compared to folic acid alone ([2]; comparison with folic acid alone): performed better than folic acid alone
